From patent publication US20240052421A1, “METHOD OF IDENTIFYING AND TREATING MITOCHONDRIAL SUBTYPE TUMORS” (The Trustees of Columbia University in the City of New York, priority 2020, published 2024)

Key:
Type in all cases: cell-based, human
MTC PDCs = test: Viability of MTC patient-derived cells (PDCs) after compound treatment, CellTiterGlo; conditions: 13 MTC PDCs, 72 h treatment, serial dilutions
Excerpt: (§1) FIGS. 9A-K show MTC PDCs are distinctly sensitive to mitochondrial inhibition. […] Data are mean±s.d. of n≥3 replicates for each PDC from one representative experiment. […] Middle: correlation analysis of MTC (blue) and GPM (red) activity in PDCs (n=25 MTC PDCs and n=21 GPM PDCs; Spearman's correlation, p=−0.51, P=0.0003). Bottom: enrichment of fCNV gain and loss of mitochondrial and glycolytic-related genes in MTC PDCs (n=25) and GPM PDCs (n=21). The number of genes amplified/deleted in each tumor is color coded (amplifications, red to white; deletions, blue to white). FIGS. 9F and G show viability curves of nine MTC PDCs and nine GPM PDCs each derived from an independent patient treated with either FX-11 (F) or DEAB (G). Data are mean±s.d. from n≥4 replicates for each PDC from one representative experiment. […] Representative MRs with differential activity (n=304 tumors, n=2,799 cells from dataset 1, n=9,652 cells from dataset 2 and n=4,916 cells from dataset 3; two-sided MWW test, FDR<0.01) in TCGA and at least two out of three single-cell datasets are shown (two-sided MWW-GST test, log it(NES)>0.58, FDR<0.01). Nodes represent MRs and target genes, while lines represent interactions. […] Data are mean±s.d. from one representative experiment including n=3 independent infections for each PDC; **P=0.0010 and 0.0013 for PDC-002 shRNA1 and shRNA2 versus vector, respectively; **P=0.0030 and 0.0023 for PDC-026 shRNA1 and shRNA2 versus vector, respectively; *P=0.0285 for PDC-078 shRNA1 versus vector; *P=0.0142 for PDC-021 shRNA1 versus vector. […] Data are mean±s.d. of one representative experiment assessed by n=30 replicates for each PDC; **P=0.0022. […] Data are mean±s.d. of n=3 independent experiments for each PDC, each performed in triplicate. Bars on the right-hand side of the graph indicate mean±s.e.m. of values observed in the two sets of PDCs; n=7 MTC PDCs and n=7 GPM PDCs, each derived from an independent patient; ***P=0.00006. Experiments in A-D, F, G, I and J were repeated two times with similar results. In all experiments, significance was evaluated by two-tailed t-test, unequal variance.
(§2) Therefore, we tested the sensitivity of 13 MTC and ten GPM PDCs to compounds that interfere with OXPHOS and mitochondrial metabolism. […] Conversely, GPM PDCs were resistant to all four compounds (FIG. 9A-D). […] Furthermore, the complementary fCN gains and losses of MTC and GPM gene sets robustly correlated with mitochondrial inhibitor sensitivity score (FIG. 9E). Treatment of GBM PDCs with inhibitors of glycolysis (DEAB and FX-11)^51 had no effect regardless of the metabolic class of PDC (FIGS. 9F,G).
(§3) Compound treatment of PDCs. […] Viability was determined using CellTiterGlo assay reagent (Promega, no. G7570) and the GloMax-Multi+Microplate Multimode Reader (Promega).

GPM PDCs = test: Viability of GPM patient-derived cells (PDCs) after compound treatment, CellTiterGlo; conditions: ten GPM PDCs, 72 h treatment, serial dilutions
Excerpt: as §1, §2, §3

GBM PDCs = test: Viability of GBM PDCs (MTC and GPM) treated with inhibitors of glycolysis; conditions: nine MTC and nine GPM PDCs, 72 h treatment
Excerpt: FIGS. 9A-K show MTC PDCs are distinctly sensitive to mitochondrial inhibition. […] Data are mean±s.d. of n≥3 replicates for each PDC from one representative experiment. […] Middle: correlation analysis of MTC (blue) and GPM (red) activity in PDCs (n=25 MTC PDCs and n=21 GPM PDCs; Spearman's correlation, p=−0.51, P=0.0003). Bottom: enrichment of fCNV gain and loss of mitochondrial and glycolytic-related genes in MTC PDCs (n=25) and GPM PDCs (n=21). The number of genes amplified/deleted in each tumor is color coded (amplifications, red to white; deletions, blue to white). FIGS. 9F and G show viability curves of nine MTC PDCs and nine GPM PDCs each derived from an independent patient treated with either FX-11 (F) or DEAB (G). Data are mean±s.d. from n≥4 replicates for each PDC from one representative experiment. […] Data are mean±s.d. of one representative experiment assessed by n=30 replicates for each PDC; **P=0.0022. […] In all experiments, significance was evaluated by two-tailed t-test, unequal variance. […]
as §3

[1] = system: glycolytic/plurimetabolic PDOs; test: Viability of glycolytic/plurimetabolic GBM PDOs, serial dilution of mitochondrial inhibitors
Procedure: (§4) The objective of the study is to test the activity of IM-156, a novel mitochondrial inhibitor currently in clinical testing, in vitro in 25 GBM-PDO organoids previously classified molecularly as mitochondrial (MTC, 13 organoids) or glycolytic/plurimetabolic (GPM, 12 organoids) plus 2 GBM-PDO harboring a FGFR3-TACC3 (F3T3) fusion.
(§5) Using IM-156 (0 μM -15 μM, 1/3 dilution, 7 points and 0-45 μM, 1/3 dilution, 10 points), […], and 2 FGFR3-TACC3 positive GBM PDOs were tested. Seventy-two hours later viability was assessed and the half-maximal inhibitory concentration was calculated. The activity (IC50) of IM-156 was compared with IACS-010759, Metformin, Tigecycline, and Menadione, 4 inhibitors of mitochondrial activity/respiration. […] FGFR3-TACC3 fusion expressing cells had been previously characterized as mitochondrial GBM.

FGFR3-TACC3 PDOs = test: Viability of FGFR3-TACC3 positive GBM PDOs, serial dilution of mitochondrial inhibitors
Procedure: as §4, §5

mitochondrial PDOs = test: Viability of mitochondrial GBM patient-derived organoids (PDOs), serial dilution of mitochondrial inhibitors
Procedure: as §4, §5

[2] = 15 μM as highest concentration, 72 h

## Cc1nc(-c2nc(-c3ccc(OC(F)(F)F)cc3)no2)nn1Cc1cccc(N2CCC(S(C)(=O)=O)CC2)c1 [IACS-010759]
MTC PDCs
  effect on viability of MTC PDCs: reduced the viability
GPM PDCs
  effect on viability of GPM PDCs: resistant

## CCCc1c(O)c(O)c(C(=O)O)c2cc(Cc3ccccc3)c(C)cc12 [FX-11]
GBM PDCs
  effect on viability of GBM PDCs regardless of metabolic class: no effect

## NC(=Nc1ccc(OC(F)(F)F)cc1)N=C(N)N1CCCC1 [IM-156]
[1]; [2]
  number of glycolytic/plurimetabolic PDOs in which the drug was effective: 2 out of 10
[1]; maximum concentration raised from 15 μM to 45 μM
  change in sensitivity of glycolytic/plurimetabolic GBM PDOs on increasing maximum concentration: significant increase in sensitivity
FGFR3-TACC3 PDOs; [2]
  number of FGFR3-TACC3 PDOs in which the drug was effective: 2 out of 2
FGFR3-TACC3 PDOs; 2 FGFR3-TACC3 positive GBM PDOs
  sensitivity of FGFR3-TACC3 fusion expressing cells: distinct sensitivity
Mitochondrial PDOs; [2]
  number of mitochondrial PDOs in which the drug was effective: 12 out of 14
Mitochondrial PDOs; MTC versus GPM patient-derived tumor models
  effectiveness in MTC models as opposed to GPM subtype: significantly more effective
Mitochondrial PDOs; mitochondrial PDOs, 15 μM as highest concentration, viability at 72 h, read-out: Median IC50
  IC50: 6.38 µM

## CC1=CC(=O)c2ccccc2C1=O [menadione]
MTC PDCs
  effect on viability of MTC PDCs: reduced the viability
GPM PDCs
  effect on viability of GPM PDCs: resistant

## CN(C)C(=N)N=C(N)N [metformin]
MTC PDCs
  effect on viability of MTC PDCs: reduced the viability
GPM PDCs
  effect on viability of GPM PDCs: resistant

## CCN(CC)c1ccc(C=O)cc1 [DEAB]
GBM PDCs
  effect on viability of GBM PDCs regardless of metabolic class: no effect

## CN(C)c1cc(NC(=O)CNC(C)(C)C)c(O)c2c1C[C@H]1C[C@H]3[C@H](N(C)C)C(O)=C(C(N)=O)C(=O)[C@@]3(O)C(O)=C1C2=O [tigecycline]
MTC PDCs
  effect on viability of MTC PDCs: reduced the viability
GPM PDCs
  effect on viability of GPM PDCs: resistant
